Measurements taken from PubChem BioAssay (NCI).
Values joined by “and” are separate entries in the source; they are usually repeats but may differ in a detail not shown here. Identical values can stand only once.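 Five compound concentrations were applied to cells in 96-well plates for 48 hours; endpoints were derived by simple linear interpolation of the resulting dose-response curve. Abbreviation: GI50, concentration required for 50% inhibition of growth. TGI denotes the concentration required for complete inhibition of growth.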

What was measured:
Test in all cases: DTP human tumour cell line panel, 48 h
[1] = tested on: 786-0 renal
[2] = tested on: A498 renal
[3] = tested on: CAKI-1 renal
[4] = tested on: HCC-2998 colon
[5] = tested on: MOLT-4 leukemia
[6] = tested on: SK-MEL-2 melanoma
[7] = tested on: SNB-19 CNS
[8] = tested on: TK-10 renal
[9] = tested on: UACC-62 melanoma
[10] = tested on: UO-31 renal

Compound | GI50 [1] | TGI [1] | GI50 [2] | TGI [2] | GI50 [3] | TGI [3] | GI50 [4] | TGI [4] | GI50 [5] | TGI [5] | GI50 [6] | TGI [6] | GI50 [7] | TGI [7] | GI50 [8] | TGI [8] | GI50 [9] | TGI [9] | TGI [10] | GI50 [10]
C/C(=C\C(=O)O[C@H]1[C@@H]2[C@H](C)CC[C@H]2[C@]2(C)O[C@@]1(C1CCCCC1)C[C@H]2OC(=O)CO)c1ccccc1 | 5.11 µM | 10.6 µM | 0.0164 µM | 0.114 µM | 0.0235 µM | 5.01 µM | 7.32 µM | 14.4 µM | 6.42 µM | 13.6 µM | 7.05 µM | 13.4 µM | 7.41 µM | 13.1 µM | 7.6 µM | 14.7 µM | 6.62 µM | 12.4 µM |  | 
O=C1C2C3CC4C5C3C1C5C1(SCCS1)C42 (centres undefined) |  | > 100 µM |  | > 100 µM |  | > 100 µM |  | > 100 µM |  | > 100 µM |  | > 100 µM |  | > 100 µM |  | > 100 µM |  | > 100 µM | > 100 µM | 
O=C(CCCc1ccc(N(CCCl)CCCl)cc1)NCc1ccccc1 | 3.32 µM | 23.3 µM | 2.59 µM | 20.8 µM | 2.33 µM | 14.4 µM | 15.4 µM | 36.4 µM | 2.89 µM | 11.6 µM | 21.8 µM | 55 µM | 18.7 µM | > 100 µM | 15.5 µM | 56.8 µM | 4.69 µM | 22 µM | 39.1 µM | 5.43 µM
O=c1c2ccccc2nc(-c2cccc([N+](=O)[O-])c2)n1O |  | > 100 µM |  | > 85.1 µM |  | > 100 µM |  | > 100 µM |  | > 100 µM |  | 91.1 µM |  | > 100 µM |  | > 100 µM |  | > 100 µM | > 100 µM | 
Cc1ccc(NC(=O)c2ccc(CN3CCN(C)CC3)cc2)cc1Nc1nc(-c2cccnc2)cs1 | 3.53 µM and 2.84 µM | 11.5 µM and 7.92 µM | 16 µM and > 10 µM | 29.6 µM and > 10 µM | 11.6 µM and > 10 µM | 24.9 µM and > 10 µM | 11.8 µM and > 10 µM | 26 µM and > 10 µM | 3.11 µM and 2.67 µM | 18.3 µM and 9.64 µM | 13.9 µM and > 10 µM | 27.3 µM and > 10 µM | 14.4 µM and 6.37 µM | 29.7 µM and > 10 µM | 16.8 µM and > 10 µM | 30.6 µM and > 10 µM | 15 µM and 8.56 µM | 30.4 µM and > 10 µM | 26.9 µM and > 10 µM | 12.4 µM and 6.42 µM
O=P1(NCCCl)OCCCN1CCCl (centres undefined) |  | > 466 µM |  | 462 µM |  | 341 µM |  | 427 µM |  | 391 µM |  | 419 µM |  | 418 µM |  | > 500 µM |  | 419 µM | 441 µM | 
O=C1C=C(Nc2ccccc2)c2ccccc2C1=O | 5.17 µM | 18.9 µM | 1.96 µM | 5.26 µM | 3.11 µM | 13.7 µM | 2.02 µM | 4.62 µM | 2.87 µM | 9.47 µM |  |  | 2.2 µM | 6.73 µM | 2.86 µM | 7.75 µM | 1.65 µM | 3.12 µM | 4.48 µM | 1.71 µM
CCCCn1c(=O)[nH]c(N)c([C@@H]2c3c([nH]c(=O)n(CCCC)c3=O)Oc3ccc4ccccc4c32)c1=O | 2.04 µM | 4.41 µM | 13.7 µM | 27.8 µM | 1.62 µM | 3.26 µM | 1.67 µM | 3.47 µM | 0.35 µM | 1.74 µM | 2.51 µM | 7.34 µM | 1.72 µM | 3.36 µM | 2.95 µM | 7.05 µM | 1.67 µM | 3.36 µM | 2.69 µM | 1.35 µM
CCOc1ccc(N(C)c2ccc(/C=C/C3=[N+](C)c4ccccc4C3(C)C)cc2)cc1 | 0.562 µM | 1.92 µM | 0.189 µM | 10.2 µM | 0.784 µM | 2.48 µM | 0.391 µM | 1.55 µM | 0.193 µM | 0.709 µM | 0.361 µM | 1.25 µM | 0.367 µM | 1.8 µM |  |  | 0.444 µM | 2.16 µM | 1.79 µM | 0.449 µM
CN(C)CCC(N)(P(=O)([O-])[O-])P(=O)([O-])[O-].N.N.[Pt+2] | > 100 µM | > 100 µM | > 100 µM | > 100 µM | > 100 µM | > 100 µM | > 100 µM | > 100 µM | > 100 µM | > 100 µM | > 100 µM | > 100 µM | > 100 µM | > 100 µM | > 100 µM | > 100 µM | > 100 µM | > 100 µM | > 100 µM | > 100 µM
CC(=O)OC(C)(C)C1CC[C@]2(C)/C=C/C(C)C[C@@H](O)/C=C(\C)CC(O)C12 (some centres undefined) |  | > 100 µM |  | > 100 µM |  | > 100 µM |  | > 100 µM |  | > 100 µM |  | > 100 µM |  | > 100 µM |  | > 100 µM |  | > 100 µM | > 100 µM | 
O=C(/C=C\c1ccc(O)c(O)c1)c1ccccc1O | 10.6 µM | 23.3 µM | 16 µM | 32.8 µM | 4.45 µM | 40 µM | 13.9 µM | 27 µM | 1.89 µM | 97.5 µM | 12 µM | 41.7 µM | 17.4 µM | 91.8 µM | 18.2 µM | > 100 µM | 12.1 µM | 26.1 µM | 18 µM | 2.2 µM
O=C1NC(=O)C(c2c[nH]c3ccccc23)=C1c1c[nH]c2ccccc12 | > 19.1 µM | > 25 µM | 3.34 µM | > 25 µM | 7.37 µM | > 25 µM | 16.2 µM | > 25 µM | 9.55 µM | > 25 µM | 12 µM | > 25 µM | > 25 µM | > 25 µM | 19.2 µM | > 25 µM | 12.1 µM | > 25 µM | > 25 µM | 3.08 µM
C/C(CN1C(=O)c2ccccc2C1=O)=N\NS(=O)(=O)c1ccc2ccccc2c1 |  | > 100 µM |  | > 100 µM |  | > 100 µM |  | > 100 µM |  | > 100 µM |  | > 100 µM |  | > 100 µM |  | > 100 µM |  | > 100 µM | > 100 µM | 
